Assays:
Assay type in all cases: functional
Raji [1] = test: Cell cycle arrest in human Raji cells assessed as accumulation in S phase at 0.5 ug/mL
Raji [2] = test: Antitumor activity against human Raji cells assessed as DNA synthesis at 0.5 ug/mL by [3H]thymidine incorporation assay relative to control
Raji [3] = test: Cell cycle arrest in human Raji cells assessed as accumulation in S phase at 1 ug/mL
Raji [4] = test: Cell cycle arrest in human Raji cells assessed as accumulation in S phase at 0.1 ug/mL
Raji [5] = test: Antitumor activity against human Raji cells assessed as DNA synthesis at 0.1 ug/mL by [3H]thymidine incorporation assay relative to control
Raji [6] = test: Antitumor activity against human Raji cells assessed as DNA synthesis at 1 ug/mL by [3H]thymidine incorporation assay relative to control

## CO[C@H]1[C@@H](O)[C@H](O[C@H]2[C@@H](OC)C[C@H](O[C@H]3[C@@H](OC)C[C@H](O[C@H]4[C@@H](OC)C[C@H](O[C@H]5CC[C@@]6(C)C(=CC[C@]7(O)[C@@H]6C[C@@H](OC(=O)/C=C/c6ccccc6)[C@@]6(C)[C@]7(O)CC[C@@]6(O)C(C)=O)C5)O[C@@H]4C)O[C@@H]3C)O[C@@H]2C)O[C@H](C)[C@H]1O[C@@H]1O[C@H](CO)[C@@H](O)[C@H](O)[C@H]1O
Raji [1]
  Activity: 11%
Raji [2]
  Activity: 21%
Raji [3]
  Activity: 4%
Raji [4]
  Activity: 22%
Raji [5]
  Activity: 41%
Raji [6]
  Activity: 14%

## CO[C@H]1[C@@H](O)[C@H](O[C@H]2[C@@H](OC)C[C@H](O[C@H]3[C@@H](OC)C[C@H](O[C@H]4[C@@H](OC)C[C@H](O[C@H]5CC[C@@]6(C)C(=CC[C@]7(O)[C@@H]6C[C@@H](OC(=O)c6ccccc6)[C@@]6(C)[C@]7(O)CC[C@@]6(O)[C@H](C)OC(=O)/C=C/c6ccccc6)C5)O[C@@H]4C)O[C@@H]3C)O[C@@H]2C)O[C@H](C)[C@H]1O[C@@H]1O[C@H](CO)[C@@H](O)[C@H](O)[C@H]1O
Raji [1]
  Activity: 6%
Raji [2]
  Activity: 14%
Raji [3]
  Activity: 4%
Raji [4]
  Activity: 4%
Raji [5]
  Activity: 15%
Raji [6]
  Activity: 14%

## CO[C@@H]1[C@@H](O)[C@H](O[C@H]2[C@@H](OC)C[C@H](O[C@H]3[C@@H](OC)C[C@H](O[C@H]4[C@@H](OC)C[C@H](O[C@H]5CC[C@@]6(C)C(=CC[C@]7(O)[C@@H]6C[C@@H](OC(=O)c6ccccc6)[C@@]6(C)[C@]7(O)CC[C@@]6(O)[C@H](C)OC(=O)/C=C/c6ccccc6)C5)O[C@@H]4C)O[C@@H]3C)O[C@@H]2C)O[C@H](C)[C@H]1O[C@@H]1O[C@H](CO)[C@@H](O)[C@H](O)[C@H]1O
Raji [1]
  Activity: 4%
Raji [2]
  Activity: 14%
Raji [3]
  Activity: 5%
Raji [4]
  Activity: 5%
Raji [5]
  Activity: 13%
Raji [6]
  Activity: 16%

## COC1C[C@H](O[C@H]2[C@@H](OC)C[C@H](O[C@H]3[C@@H](OC)C[C@H](O[C@H]4CC[C@@]5(C)C(=CC[C@]6(O)[C@@H]5C[C@@H](OC(C)=O)[C@@]5(C)[C@]6(O)CC[C@@]5(O)C(C)=O)C4)O[C@@H]3C)O[C@@H]2C)O[C@H](C)[C@H]1O[C@@H]1O[C@H](C)[C@@H](O[C@@H]2O[C@H](CO)[C@@H](O)[C@H](O)[C@H]2O)[C@@H](OC)[C@H]1O (single isomer, unassigned)
Raji [1]
  Activity: 28%
Raji [2]
  Activity: 87%
Raji [3]
  Activity: 26%
Raji [4]
  Activity: 30%
Raji [5]
  Activity: 98%
Raji [6]
  Activity: 69%

## COC1C[C@H](O[C@H]2[C@@H](OC)C[C@H](O[C@H]3[C@@H](OC)C[C@H](O[C@H]4CC[C@@]5(C)C(=CC[C@]6(O)[C@@H]5C[C@@H](OC(C)=O)[C@@]5(C)[C@]6(O)CC[C@@]5(O)[C@H](C)O)C4)O[C@@H]3C)O[C@@H]2C)O[C@H](C)[C@H]1O[C@@H]1O[C@H](C)[C@@H](O[C@@H]2O[C@H](CO)[C@@H](O)[C@H](O)[C@H]2O)[C@@H](OC)[C@H]1O (single isomer, unassigned)
Raji [1]
  Activity: 30%
Raji [2]
  Activity: 83%
Raji [3]
  Activity: 28%
Raji [4]
  Activity: 32%
Raji [5]
  Activity: 98%
Raji [6]
  Activity: 69%

## COC1C[C@H](O[C@@H]2[C@@H](C)O[C@@H](O[C@H]3[C@@H](OC)C[C@H](O[C@H]4CC[C@@]5(C)C(=CC[C@]6(O)[C@@H]5C[C@@H](OC(=O)/C=C/c5ccccc5)[C@@]5(C)[C@]6(O)CC[C@@]5(O)[C@H](C)OC(=O)c5ccccc5)C4)O[C@@H]3C)C[C@H]2OC)O[C@H](C)[C@H]1O[C@@H]1O[C@H](C)[C@@H](O[C@@H]2O[C@H](CO)[C@@H](O)[C@H](O)[C@H]2O)[C@@H](OC)[C@H]1O (single isomer, unassigned)
Raji [1]
  Activity: 5%
Raji [2]
  Activity: 16%
Raji [3]
  Activity: 3%
Raji [4]
  Activity: 6%
Raji [5]
  Activity: 16%
Raji [6]
  Activity: 15%

## COC1C[C@H](O[C@@H]2[C@@H](C)O[C@@H](O[C@H]3[C@@H](OC)C[C@H](O[C@H]4CC[C@@]5(C)C(=CC[C@]6(O)[C@@H]5C[C@@H](OC(C)=O)[C@@]5(C)[C@]6(O)CC[C@@]5(O)[C@H](C)O)C4)O[C@@H]3C)C[C@H]2OC)O[C@H](C)[C@H]1O[C@@H]1O[C@H](C)[C@@H](O[C@@H]2O[C@H](CO)[C@@H](O)[C@H](O)[C@H]2O)[C@@H](OC)[C@H]1O (single isomer, unassigned)
Raji [1]
  Activity: 30%
Raji [2]
  Activity: 89%
Raji [3]
  Activity: 18%
Raji [4]
  Activity: 34%
Raji [5]
  Activity: 98%
Raji [6]
  Activity: 65%

## COC1C[C@H](O[C@H]2[C@@H](OC)C[C@H](O[C@H]3[C@@H](OC)C[C@H](O[C@H]4CC[C@@]5(C)C(=CC[C@]6(O)[C@@H]5C[C@@H](OC(=O)/C=C/c5ccccc5)[C@@]5(C)[C@]6(O)CC[C@@]5(O)[C@H](C)O)C4)O[C@@H]3C)O[C@@H]2C)O[C@H](C)[C@H]1O[C@@H]1O[C@H](C)[C@@H](O[C@@H]2O[C@H](CO)[C@@H](O)[C@H](O)[C@H]2O)[C@@H](OC)[C@H]1O (single isomer, unassigned)
Raji [1]
  Activity: 18%
Raji [2]
  Activity: 33%
Raji [3]
  Activity: 10%
Raji [4]
  Activity: 33%
Raji [5]
  Activity: 59%
Raji [6]
  Activity: 16%

— ChEMBL document CHEMBL1158255, “New polyoxypregnane ester derivatives from Leptadenia hastata” (1996)
